Assay [1] has as its system C. albicans. Briefly: MIC of CFW in the presence of compounds, checkerboard assay. The assay is classed as cell-based, Candida albicans. How it is done: (§1) Fresh cell cultures of WT S. cerevisiae and C. albicans ATCC10231 (OD600 = 0.8) were diluted to 10^4 CFU/mL in YPD medium. The in vitro synergistic and antagonistic effects of compounds were determined using checkerboard assay. MIC endpoints were defined as the lowest concentration of drugs, causing 80% decrease in viability compared to the drug-free control (MIC80). The calculation and interpretation of the fractional inhibitory concentration index (FICI) were carried out by referring to the document standards. FICI = (MIC of drug A in combination) / (MIC of drug A alone) + (MIC of drug B in combination) / (MIC of drug B alone). FIC ≤0.5 was considered as a synergistic effect, and >2 was considered as antagonism.

The test system of assay [2] is budding yeast. Described as above. The assay is classed as cell-based, S. cerevisiae. The conditions noted are these: budding yeast, CFW alone. How it is done: as §1
For assay [3], the system named is C. albicans ATCC10231. Briefly: Checkerboard assay, synergy with caspofungin. The class given is cell-based. The conditions noted are these: Candida albicans. How it is done:
as §1

Assay [4] has as its system WT S. cerevisiae. Briefly: Checkerboard assay, synergy with caspofungin. The assay is classed as cell-based. The note with it: for MIC: Saccharomyces cerevisiae, read-out: MIC Alone. How it is done: as §1
Assay [5] has as its system chs3∆ (chs3::KanMX in BY4741). Briefly: MIC in compound library screening assay, chs3∆ yeast. The class given is cell-based, S. cerevisiae. The conditions noted are these: for MIC: Saccharomyces cerevisiae, 24 h. How it is done: (§2) The compound library is a combination of synthetic compounds from Enamine (Kyiv, Ukraine) and Life Chemicals Inc. (Burlington, ON, Canada) and natural products from the Institute of Medicinal Biotechnology. We used WT, chs3∆, and fks1∆ yeast strains to screen new antifungal agents. The screening assays were performed in 96-well plates in a final volume of 200 μL. Fresh yeast cells (OD600 = 0.8) were diluted to 10^5 CFU/mL in YPD medium. We added 198 μL of diluted culture and 2 μL of compounds into each well, and the final concentration of compounds was 100 μg/mL with 1% DMSO. The yeast cells were incubated at 30 °C for 24 hours to assess the growth. For the compounds that inhibited the growth of all three yeast strains, they were serially diluted to determine the minimal inhibit concentration (MIC) with the same method. MIC endpoints were defined as the lowest concentration of drugs that cause a 90% decrease in growth compared to the drug-free control (MIC90).

Assay [6] deals with fks1∆ (fks1::KanMX in BY4741). Kind of assay: MIC in compound library screening assay, fks1∆ yeast. The assay is classed as cell-based, S. cerevisiae. The conditions noted are these: for MIC: Saccharomyces cerevisiae, 24 h, read-out: MIC, fks1∆. How it is done: as §2
Assay [7] concerns WT S. cerevisiae strain BY4741. Kind of assay: MIC in compound library screening assay, WT yeast. The note with it: for MIC: Saccharomyces cerevisiae. The class given is cell-based. How it is done:
as §2

Read-outs that look alike come from different tables or passages of the source.

With `O=S(=O)([O-])c1cc(Nc2nc(Nc3ccccc3)nc(N(CCO)CCO)n2)ccc1/C=C/c1ccc(Nc2nc(Nc3ccccc3)nc(N(CCO)CCO)n2)cc1S(=O)(=O)[O-].[Na+].[Na+]` [CFW, Calcofluor White M2R, reference compound], the “MIC of CFW” value is 12.5 µg/mL in assay [1] (C. albicans, absence of chitin synthesis inhibitor) and 6.25 µg/mL in assay [2].

On to `CC[C@H](C)C[C@H](C)CCCCCCCCC(=O)N[C@H]1C[C@@H](O)[C@@H](NCCN)NC(=O)[C@@H]2[C@@H](O)CCN2C(=O)[C@H]([C@H](O)CCN)NC(=O)[C@H]([C@H](O)[C@@H](O)c2ccc(O)cc2)NC(=O)[C@@H]2C[C@@H](O)CN2C(=O)[C@H]([C@@H](C)O)NC1=O` [Caspofungin, caspofungin], for which the MIC (as a rule, the least concentration at which growth counts as inhibited) in assay [3] (ATCC10231, compound alone, MIC80, read-out: MIC Alone) amounted to 0.025 µg/mL; in assay [4] (S. cerevisiae, compound alone, MIC80), 0.03 µg/mL; in assay [5] (read-out: MIC, chs3∆), 0.00375 µg/mL; in assay [6] it was 0.015 µg/mL; in assay [7] (WT BY4741, YPD, 30 °C, 24 hours, MIC90, read-out: MIC, WT), 0.03 µg/mL.

`C[C@@H]([C@H](N)C(=O)N[C@H](C(=O)O)[C@H]1O[C@@H](n2ccc(=O)[nH]c2=O)[C@H](O)[C@@H]1O)[C@H](O)c1ccc(O)cn1` [Nikkomycin, nikkomycin Z, reference compound]: the minimum inhibitory concentration (MIC) was 12.5 µg/mL in assay [3] (ATCC10231, read-out: MIC Alone); over 100 µg/mL in assay [4]; 100 µg/mL in assay [1] (Candida albicans, read-out: MIC of CFW in the presence of nikkomycin Z); at least 200 µg/mL in assay [5] (read-out: MIC, chs3∆, chs3∆ mutant, YPD, 30 °C, 24 hours, MIC90); 25 µg/mL in assay [6]; at least 200 µg/mL in assay [7] (24 h, read-out: MIC, WT, WT BY4741, YPD, 30 °C, 24 hours, MIC90). The “MIC of Caspofungin Combination” value in assay [3] (MIC of caspofungin in combination with the named compound, MIC80) was 0.00625 µg/mL; in assay [4] (S. cerevisiae, MIC of caspofungin in combination with the named compound, MIC80), 0.0075 µg/mL. Moreover, the “MIC Combination” value in assay [3] (MIC of the compound in combination with caspofungin, MIC80) amounted to 3.125 µg/mL; in assay [4] (S. cerevisiae, MIC of the compound in combination with caspofungin, MIC80), 12.5 µg/mL. The FICI in assay [4] (S. cerevisiae, fractional inhibitory concentration index with caspofungin, ≤0.5 synergistic) is reported as under 0.5. Further, in assay [5] (chs3∆ mutant, YPD, 30 °C, 24 hours, MIC90), the “MIC, chs3∆” value is over 200 µg/mL. The “MIC, fks1∆” value in assay [6] (fks1∆ mutant, YPD, 30 °C, 24 hours, MIC90) worked out at 25 µg/mL. Further, in assay [7] (WT BY4741, YPD, 30 °C, 24 hours, MIC90), the “MIC, WT” value was over 200 µg/mL.

Source of the values: paper PMC6749524, “Identification of New Antifungal Agents Targeting Chitin Synthesis by a Chemical-Genetic Method” (Molecules, 2019).
